Earlier results in PMC9851200, “Multiparameter phenotypic screening for endogenous TFEB and TFE3 translocation identifies novel chemical series modulating lysosome function” (Autophagy, 2022).

Experiments:
Set-up in all cases: method as in original PKIS2 published data
[1] = molecular target: kinases (KINOMEscan panel) (Homo sapiens, UniProt Q9Y243); conditions: kinase AKT3; Published KINOMEscan; ref original PKIS2 published data; cited from earlier work
[2] = molecular target: kinases (KINOMEscan panel) (Homo sapiens, UniProt Q13233); conditions: MAP3K1; Published KINOMEscan; ref original PKIS2 published data; cited from earlier work
[3] = molecular target: T1, kinases (KINOMEscan panel) (Homo sapiens, UniProt O15530); conditions: Published KINOMEscan; ref original PKIS2 published data; cited from earlier work
T1 sequence (O15530 1-556): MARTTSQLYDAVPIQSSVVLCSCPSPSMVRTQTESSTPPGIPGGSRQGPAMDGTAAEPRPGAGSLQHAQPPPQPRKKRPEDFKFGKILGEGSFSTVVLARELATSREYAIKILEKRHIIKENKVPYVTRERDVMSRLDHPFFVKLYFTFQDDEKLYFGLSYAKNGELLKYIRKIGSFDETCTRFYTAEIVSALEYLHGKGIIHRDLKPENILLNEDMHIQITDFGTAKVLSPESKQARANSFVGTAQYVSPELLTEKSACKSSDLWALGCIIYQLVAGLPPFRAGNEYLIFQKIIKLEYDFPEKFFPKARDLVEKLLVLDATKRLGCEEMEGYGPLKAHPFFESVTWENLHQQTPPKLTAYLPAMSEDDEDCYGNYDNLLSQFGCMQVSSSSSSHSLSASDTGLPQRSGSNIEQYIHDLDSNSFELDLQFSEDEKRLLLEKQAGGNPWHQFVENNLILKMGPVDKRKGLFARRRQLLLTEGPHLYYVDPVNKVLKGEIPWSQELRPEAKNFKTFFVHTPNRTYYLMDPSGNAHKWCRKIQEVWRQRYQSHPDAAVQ

[4] = molecular target: kinases (KINOMEscan panel) (Homo sapiens, UniProt P17612); conditions: kinase PRKACA; Published KINOMEscan; ref original PKIS2 published data; cited from earlier work
[5] = molecular target: T2, kinases (KINOMEscan panel) (Homo sapiens, UniProt O14920); conditions: cited from earlier work
T2 sequence (O14920 1-756): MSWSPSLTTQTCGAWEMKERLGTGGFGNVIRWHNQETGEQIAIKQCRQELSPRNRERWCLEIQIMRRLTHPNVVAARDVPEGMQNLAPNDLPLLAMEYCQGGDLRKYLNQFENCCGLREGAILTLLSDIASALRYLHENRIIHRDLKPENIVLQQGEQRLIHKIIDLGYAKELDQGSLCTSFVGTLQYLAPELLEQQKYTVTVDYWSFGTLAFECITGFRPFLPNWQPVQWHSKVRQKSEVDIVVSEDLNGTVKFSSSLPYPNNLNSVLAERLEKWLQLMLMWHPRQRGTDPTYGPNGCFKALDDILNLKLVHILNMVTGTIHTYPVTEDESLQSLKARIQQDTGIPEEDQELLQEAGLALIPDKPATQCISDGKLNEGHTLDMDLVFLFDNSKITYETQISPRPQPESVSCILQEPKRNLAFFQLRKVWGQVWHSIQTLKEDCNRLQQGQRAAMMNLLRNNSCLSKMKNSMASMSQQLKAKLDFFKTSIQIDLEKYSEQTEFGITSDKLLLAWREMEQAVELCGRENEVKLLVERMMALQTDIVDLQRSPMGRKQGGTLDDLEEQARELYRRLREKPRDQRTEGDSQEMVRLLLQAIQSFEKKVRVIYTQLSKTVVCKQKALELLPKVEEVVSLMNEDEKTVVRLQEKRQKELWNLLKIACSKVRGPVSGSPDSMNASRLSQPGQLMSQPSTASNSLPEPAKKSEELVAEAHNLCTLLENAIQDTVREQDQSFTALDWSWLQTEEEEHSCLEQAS

[6] = molecular target: T3, kinases (KINOMEscan panel) (Homo sapiens, UniProt Q8IW41); conditions: MAPKAPK5; Published KINOMEscan; ref original PKIS2 published data; cited from earlier work
T3 sequence (Q8IW41 1-473): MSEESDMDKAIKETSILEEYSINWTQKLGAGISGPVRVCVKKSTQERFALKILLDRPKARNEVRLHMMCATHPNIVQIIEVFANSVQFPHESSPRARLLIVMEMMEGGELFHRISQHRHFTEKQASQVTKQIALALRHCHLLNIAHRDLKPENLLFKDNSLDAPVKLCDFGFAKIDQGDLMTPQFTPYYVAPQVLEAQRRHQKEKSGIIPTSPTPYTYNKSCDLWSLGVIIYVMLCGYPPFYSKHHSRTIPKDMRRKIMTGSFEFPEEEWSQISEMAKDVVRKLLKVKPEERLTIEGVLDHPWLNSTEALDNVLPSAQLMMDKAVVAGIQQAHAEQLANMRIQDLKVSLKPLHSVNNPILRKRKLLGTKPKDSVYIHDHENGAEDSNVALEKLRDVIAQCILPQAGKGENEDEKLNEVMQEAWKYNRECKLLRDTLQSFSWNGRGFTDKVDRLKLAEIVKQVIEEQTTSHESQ

[7] = molecular target: kinases (KINOMEscan panel) (Homo sapiens, UniProt O75914); conditions: Published KINOMEscan; ref original PKIS2 published data; cited from earlier work
kinases (KINOMEscan panel) (Homo sapiens, UniProt O75914), sequence (O75914 whole entry): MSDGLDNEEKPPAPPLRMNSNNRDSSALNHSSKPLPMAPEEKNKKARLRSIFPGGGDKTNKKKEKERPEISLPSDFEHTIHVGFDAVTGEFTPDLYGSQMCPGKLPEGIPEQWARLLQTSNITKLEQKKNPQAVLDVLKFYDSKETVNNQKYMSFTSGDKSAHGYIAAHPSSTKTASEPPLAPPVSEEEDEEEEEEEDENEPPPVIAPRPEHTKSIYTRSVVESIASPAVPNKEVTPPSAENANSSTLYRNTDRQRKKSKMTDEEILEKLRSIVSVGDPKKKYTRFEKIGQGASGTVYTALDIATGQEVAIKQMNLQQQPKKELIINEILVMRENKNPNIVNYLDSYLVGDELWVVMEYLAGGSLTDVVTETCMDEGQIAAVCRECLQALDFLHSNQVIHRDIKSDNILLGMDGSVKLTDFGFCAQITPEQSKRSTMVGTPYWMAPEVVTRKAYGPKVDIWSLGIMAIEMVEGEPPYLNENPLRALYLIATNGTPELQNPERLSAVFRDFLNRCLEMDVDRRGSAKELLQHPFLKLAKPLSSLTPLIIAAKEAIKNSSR

kinases (KINOMEscan panel) (Homo sapiens, UniProt Q13233), sequence (Q13233 whole entry): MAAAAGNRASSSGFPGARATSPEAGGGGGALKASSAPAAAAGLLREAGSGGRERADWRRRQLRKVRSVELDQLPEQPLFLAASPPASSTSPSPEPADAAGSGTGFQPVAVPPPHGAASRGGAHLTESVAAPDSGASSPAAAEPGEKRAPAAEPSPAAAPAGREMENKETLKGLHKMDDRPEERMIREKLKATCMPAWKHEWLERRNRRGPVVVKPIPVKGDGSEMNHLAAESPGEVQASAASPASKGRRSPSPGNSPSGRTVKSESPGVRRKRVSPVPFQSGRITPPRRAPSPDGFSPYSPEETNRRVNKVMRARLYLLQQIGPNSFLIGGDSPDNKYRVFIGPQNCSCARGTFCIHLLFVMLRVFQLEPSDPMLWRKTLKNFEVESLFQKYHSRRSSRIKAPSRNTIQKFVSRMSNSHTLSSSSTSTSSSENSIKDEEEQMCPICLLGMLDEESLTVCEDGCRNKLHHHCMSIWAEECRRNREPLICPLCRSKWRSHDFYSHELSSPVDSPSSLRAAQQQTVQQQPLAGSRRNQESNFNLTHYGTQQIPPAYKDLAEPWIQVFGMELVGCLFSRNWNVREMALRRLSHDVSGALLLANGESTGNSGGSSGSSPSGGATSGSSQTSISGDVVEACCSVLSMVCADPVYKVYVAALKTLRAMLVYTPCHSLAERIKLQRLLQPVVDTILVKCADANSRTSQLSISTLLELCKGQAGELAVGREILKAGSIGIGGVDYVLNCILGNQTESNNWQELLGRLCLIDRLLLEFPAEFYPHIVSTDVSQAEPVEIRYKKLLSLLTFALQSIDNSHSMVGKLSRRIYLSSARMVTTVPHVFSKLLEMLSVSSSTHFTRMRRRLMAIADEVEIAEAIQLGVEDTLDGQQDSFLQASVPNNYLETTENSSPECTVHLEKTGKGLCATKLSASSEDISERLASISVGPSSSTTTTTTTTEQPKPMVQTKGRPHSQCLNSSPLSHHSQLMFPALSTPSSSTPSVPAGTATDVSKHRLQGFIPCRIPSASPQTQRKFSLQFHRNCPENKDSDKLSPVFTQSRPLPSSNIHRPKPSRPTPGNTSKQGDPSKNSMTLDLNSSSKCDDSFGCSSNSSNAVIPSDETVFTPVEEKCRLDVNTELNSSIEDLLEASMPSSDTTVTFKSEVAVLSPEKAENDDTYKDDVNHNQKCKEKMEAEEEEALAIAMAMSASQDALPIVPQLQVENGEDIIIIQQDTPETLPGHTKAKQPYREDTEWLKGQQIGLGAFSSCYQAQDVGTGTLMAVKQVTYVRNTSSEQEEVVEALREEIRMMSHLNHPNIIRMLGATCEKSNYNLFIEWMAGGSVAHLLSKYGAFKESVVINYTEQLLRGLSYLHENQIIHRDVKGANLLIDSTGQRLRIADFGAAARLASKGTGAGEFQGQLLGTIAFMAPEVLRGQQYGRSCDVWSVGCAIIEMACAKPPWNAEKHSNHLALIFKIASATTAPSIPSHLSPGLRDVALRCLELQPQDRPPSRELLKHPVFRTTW
kinases (KINOMEscan panel) (Homo sapiens, UniProt Q9Y243), sequence (Q9Y243 whole entry): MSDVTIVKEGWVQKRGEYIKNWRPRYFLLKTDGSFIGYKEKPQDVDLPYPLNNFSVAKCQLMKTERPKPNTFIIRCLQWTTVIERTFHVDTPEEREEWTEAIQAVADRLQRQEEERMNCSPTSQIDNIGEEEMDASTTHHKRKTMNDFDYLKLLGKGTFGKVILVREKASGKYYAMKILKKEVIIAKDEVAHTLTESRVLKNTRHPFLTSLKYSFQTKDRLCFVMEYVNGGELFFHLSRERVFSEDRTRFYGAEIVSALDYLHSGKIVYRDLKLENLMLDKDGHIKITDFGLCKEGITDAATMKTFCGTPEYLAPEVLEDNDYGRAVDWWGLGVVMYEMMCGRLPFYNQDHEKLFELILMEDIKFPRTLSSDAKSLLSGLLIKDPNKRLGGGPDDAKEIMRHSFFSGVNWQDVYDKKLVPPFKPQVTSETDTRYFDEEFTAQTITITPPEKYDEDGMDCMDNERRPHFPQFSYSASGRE

For `Cc1cccc(-c2nc(Nc3ccncc3)c3ccccc3n2)n1` [NK215], the “KINOMEscan AKT3” value [1] is given as 0, the “KINOMEscan MAP3K1” value [2] is given as 0 and the “KINOMEscan PDPK1” value [3] is given as 24. The “KINOMEscan PRKACA” value [4] was 23, the “KINOMEscan IKBKB/IKK-beta” value [5] was 0 and the “KINOMEscan MAPKAPK5” value [6] was 0. For the same compound, the “KINOMEscan PAK3” value [7] was 0.
